Measurements from US5688949A, “Pyrazolo[1,5-A]pyrimidine derivatives and anti-inflammatory agent containing the same” (Otsuka Pharmaceutical Factory, Inc., priority 1991, dated 1997).

Key:
cyclooxygenase [1] = molecular target: T1, cyclooxygenase (Ovis aries, UniProt P05979); experiment: Cyclooxygenase inhibitory activity test 2 (fixed concentration, sheep seminal vesicle microsome); type: biochemical; settings: same fixed concentration, 3×10^-7 M; PGE2 producing rate compared with control group
T1 construct: sheep seminal vesicle microsome, which is a crude enzyme solution; from tissue; host or cells: sheep seminal vesicle microsomes (crude enzyme solution)
T1 sequence (P05979 25-600): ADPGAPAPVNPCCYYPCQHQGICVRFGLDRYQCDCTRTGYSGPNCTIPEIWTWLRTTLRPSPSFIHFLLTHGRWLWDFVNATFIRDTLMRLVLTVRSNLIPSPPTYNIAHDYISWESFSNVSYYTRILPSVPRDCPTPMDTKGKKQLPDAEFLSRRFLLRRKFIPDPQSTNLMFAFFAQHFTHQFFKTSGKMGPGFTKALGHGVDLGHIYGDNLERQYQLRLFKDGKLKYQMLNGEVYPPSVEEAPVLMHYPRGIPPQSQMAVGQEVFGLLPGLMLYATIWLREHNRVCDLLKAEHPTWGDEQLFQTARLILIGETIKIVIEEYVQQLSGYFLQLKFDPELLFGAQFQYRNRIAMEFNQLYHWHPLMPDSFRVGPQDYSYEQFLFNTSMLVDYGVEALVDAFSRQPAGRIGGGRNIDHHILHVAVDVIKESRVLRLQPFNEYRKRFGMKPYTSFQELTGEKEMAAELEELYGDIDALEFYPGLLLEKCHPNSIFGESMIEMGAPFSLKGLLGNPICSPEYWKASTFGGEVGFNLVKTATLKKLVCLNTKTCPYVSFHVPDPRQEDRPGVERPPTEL
Protocol: The preparation of sheep seminal vesicle microsome, which is a crude enzyme solution, and the analysis of the cyclooxygenase activity were carried out according to the method of Miyamoto et al. as follows [cf.
(§1) That is, a test compound was added to a microsome solution, and the mixture was incubated at 24° C. for two minutes, and then, thereto was added a substrate, ^14 C-arachidonic acid. The mixture was further incubated for two minutes, and the reaction was quenched with a mixture of ether/methanol/0.2M citric acid (30:4:1), and extracted to collect a product produced by cyclooxygenase. The extract was spotted on a thin layer plate and the plate was developed. The fractions containing the arachidonic acid, prostaglandin E2 (PGE2) and the other parts were collected by scratching, respectively. Each part was measured with a scintillation counter, by which the cyclooxygenase activity therein was estimated.

cyclooxygenase [2] = molecular target: T1, cyclooxygenase; experiment: Cyclooxygenase inhibitory activity test 1 (sheep seminal vesicle microsome, 14C-arachidonic acid); type: biochemical
Protocol: Cyclooxygenase inhibitory activity test 1:
The preparation of sheep seminal vesicle microsome, which is a crude enzyme solution, and the analysis of the cyclooxygenase activity were carried out according to the method of Miyamoto et al. as follows [cf. Proc. Natl. Acad. Sci., U.S.A., 71, 3645 (1974) and J. Biol. Chem., 251, 2629 (1976)].
as §1
The compounds prepared in Examples 2, 38, 44 and 46 were tested in the above experiment, and there were obtained the concentrations of the test compounds required to reduce the cyclooxygenase activity to 50% (cyclooxygenase inhibitory rate; IC50 value).

| inhibition at 0.3 µM (cyclooxygenase [1]) [%] | IC50 value relative to that of indomethacin ("times as high as that of indomethacin") (cyclooxygenase [2]; reference compound indomethacin) [times] | IC50 (cyclooxygenase [2]; sheep seminal vesicle microsome, 24° C., two minutes preincubation, two minutes with 14C-arachidonic acid, read-out: IC50 value (concentration required to reduce the cyclooxygenase activity to 50%)) [nM] | SMILES |
| --- | --- | --- | --- |
| 55.9 | – | – | CCc1cc(Nc2cc(C(C)(C)C)c(O)c(C(C)(C)C)c2)n2nccc2n1 [Example 44] |
| 50.5 | – | – | CC(C)(C)c1cc(Nc2cc(C3CC3)nc3ccnn23)cc(C(C)(C)C)c1O [Example 46] |
| 48.2 | – | – | CCCCc1cc(Nc2cc(C(C)(C)C)c(O)c(C(C)(C)C)c2)n2nccc2n1 [Example 38] |
| 65 | 27.8 | 300 | Cc1cc(Nc2cc(C(C)(C)C)c(O)c(C(C)(C)C)c2)n2nccc2n1 [Example 2, 5-methyl-7-(3,5-di-t-butyl-4-hydroxyphenyl)aminopyrazolo[1,5-a]pyrimidine] |
